Target: T1, CpsB (Streptococcus pneumoniae, UniProt Q9AHD4)
T1 construct: His6CpsB
Assay: inhibition of pNPP dephosphorylation by purified His6CpsB (A410)
Format: biochemical

T1 sequence (Q9AHD4 whole entry, looked up): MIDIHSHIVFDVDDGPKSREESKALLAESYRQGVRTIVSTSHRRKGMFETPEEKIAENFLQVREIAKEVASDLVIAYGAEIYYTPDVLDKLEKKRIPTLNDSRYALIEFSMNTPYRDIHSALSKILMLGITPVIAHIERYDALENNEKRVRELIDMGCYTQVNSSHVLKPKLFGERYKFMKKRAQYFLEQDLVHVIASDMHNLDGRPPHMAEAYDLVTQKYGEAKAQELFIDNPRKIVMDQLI

## CC(C)=CCC/C(C)=C/CC/C(C)=C/CC/C(C)=C/Cc1cc(OS(=O)(=O)O)ccc1O [FQE, fascioquinol E]
  IC50: 5.21 µM

Reference: paper PMC3356977, “Chemical Inhibition of Bacterial Protein Tyrosine Phosphatase Suppresses Capsule Production” (PLoS ONE, 2012)
